Experimental data taken from patent US20230104283A1, “JNK INHIBITOR, AND PHARMACEUTICAL COMPOSITION AND USE THEREOF” (WUHAN LL SCIENCE AND TECHNOLOGY DEVELOPMENT CO. , LTD, priority 2019, published 2023).

How the values were obtained:
[1] = test system: RAW264.7 phosphorylated c-Jun (Ser63); assay: RAW264.7 phosphorylated c-Jun whole cell assay; type: cell-based; details: Mus musculus; cytological assay, activity level; lipopolysaccharide-activated RAW264.7 cells, phospho-c-Jun (Ser63) ELISA
Protocol: RAW264.7 (ATCC TIB-71) cells were purchased from BeNa Culture Collection and maintained in a high-glucose DMEM medium (Gibco) containing 10% fetal bovine serum (Gibco) and 1% penicillin-streptomycin (Gibco). All cells were cultured at 37° C. in 95% air and 5% CO2. All cells were seeded into 120 μL of cell culture medium in a 96-well plate at a density of 2×10^5 cells per well. The stock solution of compound (15 mM) was serially diluted in DMSO (Sigma) and further diluted in growth medium, and it was then added at 15 μL per well as a 10× concentrated solution, well mixed with the cells and incubated with the cells for 30 min. Concentration of the compound vehicle (DMSO) in each well was 0.2%. After incubation for 30 min, the cells were activated with […] lipopolysaccharide (Sigma). Lipopolysaccharide was added to the growth medium as a 10× concentrated solution at 15 μL per well. The cell plate was incubated for 1 h, and then all the medium was removed. The level of C-Jun protein with phosphorylation of serine at site 63 was measured using the whole cell lysate kit-phosphorylated C-Jun assay (PathScan® Phospho-c-Jun (Ser63) Sandwich ELISA Kit) (CST, 7145C) according to the manufacturer's instructions.

JNK1 kinase = target: T1, JNK1 kinase (Homo sapiens, UniProt P45983); assay: JNK1 activity screening (time-resolved fluorometric HTRF kinase assay); type: biochemical; details: enzymatic assay, activity level
T1 construct: purchased Carna Biosciences 04-163
Protocol: JNK1 activity screening. JNK1 activity was detected using a 96-well (Cisbio, 66PL96025) time-resolved fluorometric assay. The JNK1 assay was conducted in the following assay buffer: 10 mM MgCl2 (Sigma, M1028), 1 mM MnCl2 (Sigma, M1787), 1 mM DTT (Sigma, D0632) and 1× Enzymatic buffer/kinase (Cisbio, 62EZBFDC). By using the assay buffer, 3 μL of 0.1 ng/μL JNK1 kinase (Carna Biosciences, 04-163) was added to a 96-well microplate, and then 4 μL of a compound diluted appropriately (with a DMSO content of 2.5%) was added. The resulting mixture was incubated at room temperature for 0.5 h. To start the reaction, the assay buffer was used to mix 0.003 μM ATP (Aladdin, A7699) and 30 μM substrate ATF2-GST fusion (Cisbio, 64CUS000AFPEB), and 3 μL of the mixed solution was added to the microplate. The resulting mixture was incubated at room temperature for 2.5 h. HTRF detection buffer ([…], 62SDBRDD) was used then to prepare a mixture of 5 μg/mL MAb Anti GST-XL665 (Cisbio, 61GSTXLA) and 0.045 μg/mL PAb Anti-phospho ATF2-K (Cisbio, 61P12KAZ), and 10 μL of the mixture was added to the plate to terminate the reaction. After incubation for about 12 h, the plate was read on a Perkin-Elmer Envision reader.

T1 sequence (P45983 whole entry): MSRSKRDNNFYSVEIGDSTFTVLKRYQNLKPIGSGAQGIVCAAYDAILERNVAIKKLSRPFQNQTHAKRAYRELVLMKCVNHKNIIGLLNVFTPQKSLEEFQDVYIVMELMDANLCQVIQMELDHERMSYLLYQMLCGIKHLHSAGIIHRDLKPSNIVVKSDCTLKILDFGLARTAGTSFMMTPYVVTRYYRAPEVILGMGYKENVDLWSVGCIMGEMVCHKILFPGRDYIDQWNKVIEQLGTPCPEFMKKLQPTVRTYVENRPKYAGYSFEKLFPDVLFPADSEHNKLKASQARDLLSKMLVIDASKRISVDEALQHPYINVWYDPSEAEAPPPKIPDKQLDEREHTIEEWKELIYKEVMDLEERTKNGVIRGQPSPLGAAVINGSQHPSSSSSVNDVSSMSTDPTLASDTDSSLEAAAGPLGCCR

SMILES	IC50 [1] [nM]	IC50 (JNK1 kinase) [nM]
C[C@@H]1CC[C@@H](Nc2nc(NC(C)(C)C)ncc2C(N)=S)C[C@H]1O [Compound T001, 2-(tert-butylamino)-4-(((1R,3R,4R)-3-hydroxy-4-methylcyclohexyl)amino) pyrimidine-5-carbothioamide]	100 to 500	< 100
C[C@@H]1CC[C@@H](Nc2nc(NC(C)(C)C)ncc2C#N)C[C@H]1O [Compound T001A, 2-(tert-butylamino)-4-(((1R,3R,4R)-3-hydroxy-4-methylcyclohexyl)amino) pyrimidine-5-carbonitrile]	100 to 500	100 to 500
C[C@@H]1CC[C@@H](Nc2nc(NC(C)(C)C)ncc2/C(N)=N\O)C[C@H]1O [Compound T002, (E)-2-(tert-butylamino)-N′-hydroxy-4-(((1R,3R,4R)-3-hydroxy-4-methylcyclohexyl)amino)pyrimidine-5-carboximidamide]	100 to 500	< 100
C[C@@H]1CC[C@@H](Nc2nc(NC(C)(C)C)ncc2C(=N)N)C[C@H]1O [Compound T003, 2-(tert-butylamino)-4-(((1R,3R,4R)-3-hydroxy-4-methylcyclohexyl)amino) pyrimidine-5-carboximidamide]	> 1000	500 to 1000
C[C@@H]1CC[C@@H](Nc2nc(Nn3cnnc3)ncc2C(N)=O)C[C@H]1O [Compound T004, 2-((4H-1,2,4-triazol-4-yl)amino)-4-(((1R, 3R,4R)-3-hydroxy-4-methylcyclohexyl)amino)pyrimidine-5-carboxamide]	> 1000	> 1000
C[C@@H]1CC[C@@H](Nc2nc(NC(C)(C)C)ncc2C(C)(C)O)C[C@H]1O [Compound T005, (1R,2R,5R)-5-((2-(tert-butylamino)-5-(2-hydroxypropan-2-yl)pyrimidin-4-yl)amino)-2-methylcyclohexan-1-ol]	> 1000	> 1000
COC(=O)c1cnc(NC(C)(C)C)nc1N[C@@H]1CC[C@@H](C)[C@H](O)C1 [Compound T005A, Methyl 2-(tert-butylamino)-4-(((IR,3R,4R)-3-hydroxy-4-methylcyclohexyl)amino) pyrimidine-5-carboxylate]	> 1000	> 1000
CC(C)(C)Nc1ncc(C(N)=O)c(N2CCC(O)CC2)n1 [Compound T006, 2-(tert-butylamino)-4-(4-hydroxypiperidin-l-yl)pyrimidine-5-carboxamide]	> 1000	> 1000
CC(C)(C)Nc1ncc(C(N)=O)c(NC2CCCN(C(=O)CC#N)C2)n1 (centres unmarked) [Compound T007, 2-(tert-butylamino)-4-((1-(2-cyanoacetyl)piperidin-3-yl)amino)pyrimidine-5-carboxamide]	> 1000	> 1000
CC(C)(C)Nc1ncc(C(N)=O)c(NC2CCCN(C(=O)CC(=O)O)C2)n1 (stereo not drawn) [Compound T008, 3-(3-((2-(tert-butylamino)-5-carbamoylpyrimidin-4-yl)amino)piperidin-l-yl)-3-oxopropanoic acid]	> 1000	> 1000
CC(C)(C)Nc1ncc(C(N)=O)c(NCC2CCC(=O)N2)n1 (centres unmarked) [Compound T009, 2-(tert-butylamino)-4-(((5-oxopyrrolidin-2-yl)methyl)amino)pyrimidine-5-carboxamide]	> 1000	> 1000
COc1ccc(Nc2ncc(C(N)=O)c(N[C@@H]3CC[C@@H](C)[C@H](O)C3)n2)cc1 [Compound T010, 4-(((1R,3R,4R)-3-hydroxy-4-methylcyclohexyl)amino)-2-((4-methoxyphenyl)amino) pyrimidine-5-carboxamide]	< 100	< 100
CC(C)(C)Nc1ncc(C(N)=O)c(Nc2cccc(C(=O)O)c2)n1 [Compound T011, 3-((2-(tert-butylamino)-5-carbamoylpyrimidin-4-yl)amino) benzoic acid]	> 1000	500 to 1000
C[C@@H]1CC[C@@H](Nc2nc(NC(C)(C)C)ncc2F)C[C@H]1O [Compound T012, (1R,2R,5R)-5-((2-(tert-butylamino)-5-fluoropyrimidin-4-yl)amino)-2-methylcyclohexan-1-ol]	> 1000	> 1000
C[C@@H]1CC[C@@H](Nc2nc(NC(C)(C)C)ncc2Cl)C[C@H]1O [Compound T013, (1R,2R,5R)-5-((2-(tert-butylamino)-5-chloropyrimidin-4-yl)amino)-2-methylcyclohexan-1-ol]	> 1000	500 to 1000
Cc1cnc(NC(C)(C)C)nc1N[C@@H]1CC[C@@H](C)[C@H](O)C1 [Compound T014, (1R,2R,5R)-5-((2-(tert-butylamino)-5-methylpyrimidin-4-yl)amino)-2-methylcyclohex-1-ol]	> 1000	> 1000
C[C@@H]1CC[C@@H](Nc2nc(NC3CC4(COC4)C3)ncc2C(N)=O)C[C@H]1O [Compound T015, 2-((2-oxaspiro[3.3]heptan-6-yl)amino)-4-(((1R,3R,4R)-3-hydroxy-4-methylcyclohexyl)amino)pyrimidine-5-carboxamide]	500 to 1000	< 100
CC(C)(C)Nc1ncc(C(N)=O)c(NC2CCC(=O)NC2)n1 (centres unmarked) [Compound T016, 2-(tert-butylamino)-4-((6-oxopiperidin-3-yl)amino)pyrimidine-5-carboxamide]	500 to 1000	< 100
CC(C)(C)Nc1ncc(C(N)=O)c(NC2CCC(=O)N(CCO)C2)n1 (stereo not drawn) [Compound T017, 2-(tert-butylamino)-4-((l-(2-hydroxyethyl)-6-oxopiperidin-3-yl)amino)pyrimidine-5-carboxamide]	500 to 1000	< 100
CC(C)(C)Nc1ncc(C(N)=O)c(N2CCCC(CO)C2)n1 (centres unmarked) [Compound T018, 2-(tert-butylamino)-4-(3-(hydroxymethyl)piperidin-1-yl)pyrimidine-5-carboxamide]	500 to 1000	100 to 500
CC(C)(C)Nc1ncc(C(N)=O)c(N2CCC(CO)C2)n1 (centres unmarked) [Compound T019, 2-(tert-butylamino)-4-(3-(hydroxymethyl)pyrrolidin-1-yl)pyrimidine-5-carboxamide]	500 to 1000	100 to 500
CC(C)(C)Nc1ncc(C(N)=O)c(N2CC(C(C)(C)O)C2)n1 [Compound T020, 2-(tert-butylamino)-4-(3-(2-hydroxypropan-2-yl)azetidin-1-yl) pyrimidine-5-carboxamide]	500 to 1000	100 to 500
CC(C)(C)Nc1ncc(C(N)=O)c(NC2CCCN(C(N)=O)C2)n1 (centres unmarked) [Compound T021, 2-(tert-butylamino)-4-((1-carbamoylpiperidin-3-yl)amino) pyrimidine-5-carboxamide]	> 1000	100 to 500
C[C@@H]1CC[C@@H](Nc2nc(N3CCOCC3)ncc2C(N)=O)C[C@H]1O [Compound T022, 4-(((1R,3R,4R)-3-hydroxy-4-methylcyclohexyl)amino)-2-morpholinopyrimidine-5-carboxamide]	> 1000	500 to 1000
C[C@@H]1CC[C@@H](Nc2nc(N3CCNC(=O)C3)ncc2C(N)=O)C[C@H]1O [Compound T023, 4-(((1R,3R,4R)-3-hydroxy-4-methylcyclohexyl)amino)-2-(3-oxopiperazin-1-yl)pyrimidine-5-carboxamide]	> 1000	500 to 1000
CCNC(=O)N1CCC(Nc2ncc(C(N)=O)c(N[C@@H]3CC[C@@H](C)[C@H](O)C3)n2)CC1 [Compound T024, 2-((l-(ethylcarbamoyl)piperidin-4-yl)amino)-4-(((1R,3R,4R)-3-hydroxy-4-methylcyclohexyl)amino)pyrimidine-5-carboxamide]	100 to 500	< 100
CC(C)(C)Nc1ncc(C(N)=O)c(NC2CCCNC2)n1 (centres unmarked) [Compound T025, 2-(tert-butylamino)-4-(piperidin-3-ylamino)pyrimidine-5-carboxamide]	> 1000	< 100
CC(C)(C)Nc1ncc(C(N)=O)c(Nc2cccc(CO)c2)n1 [Compound T026, 2-(tert-butylamino)-4-((3-(hydroxymethyl)phenyl)amino)pyrimidine-5-carboxamide]	100 to 500	< 100
